According to patent US20220324815A1, “2-PHENOXY-PYRIMIDINE DERIVATIVES AS HERBICIDAL COMPOUNDS” (SYNGENTA CROP PROTECTION AG, priority 2019, published 2022):

How the values were obtained:
Assay type in all cases: in vivo
Conditions in all cases: 250 g/ha unless otherwise stated, evaluated after 13 days, five-point scale
[1] = tested on: Ipomoea hederacea (IPOHE); assay: Test 1 glasshouse herbicide test, post-emergence application (Table B1)
In short: (§1)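 Score is % phytotoxicity after 13 days, binned 1 (0–20%) to 5 (81–100%). Compound given at 250 g/ha unless stated, as acetone/water (50:50) spray with 0.5% Tween 20, one day post-sowing (pre-emergence) or after 8 days' growth (post-emergence); glasshouse at 24/16 °C day/night, 14 h light, 65% humidity.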

[2] = tested on: Lolium perenne (LOLPE); assay: as above
In short: as §1

[3] = tested on: Amaranthus retoflexus (AMARE); assay: as above
In short: as §1

[4] = tested on: Echinochloa crus-galli (ECHCG); assay: as above
In short: as §1

[5] = tested on: Setaria faberi (SETFA); assay: as above
In short: as §1

[6] = tested on: Solanum nigrum (SOLNI); assay: as above
In short: as §1

[7] = tested on: Ipomoea hederacea (IPOHE); assay: Test 1 glasshouse herbicide test, pre-emergence application (Table B2)
In short: as §1

[8] = tested on: Lolium perenne (LOLPE); assay: as above
In short: as §1

[9] = tested on: Amaranthus retoflexus (AMARE); assay: as above
In short: as §1

[10] = tested on: Echinochloa crus-galli (ECHCG); assay: as above
In short: as §1

[11] = tested on: Setaria faberi (SETFA); assay: as above
In short: as §1

[12] = tested on: Solanum nigrum (SOLNI); assay: as above
In short: as §1

| SMILES | % phytotoxicity IPOHE, post-emergence application [1] | % phytotoxicity LOLPE, post-emergence application [2] | % phytotoxicity AMARE, post-emergence application [3] | % phytotoxicity ECHCG, post-emergence application [4] | % phytotoxicity SETFA, post-emergence application [5] | % phytotoxicity SOLNI, post-emergence application [6] | % phytotoxicity IPOHE, pre-emergence application [7] | % phytotoxicity LOLPE, pre-emergence application [8] | % phytotoxicity AMARE, pre-emergence application [9] | % phytotoxicity ECHCG, pre-emergence application [10] | % phytotoxicity SETFA, pre-emergence application [11] | % phytotoxicity SOLNI, pre-emergence application [12] |
| --- | --- | --- | --- | --- | --- | --- | --- | --- | --- | --- | --- | --- |
| FC(F)(F)CCSc1ccccc1Oc1ncc(Cl)cn1 [Al] | 4 (4=61 to 80%) | 4 (4=61 to 80%) | 5 (5=81 to 100%) | 4 (4=61 to 80%) | 4 (4=61 to 80%) | 4 (4=61 to 80%) |  |  |  |  |  |  |
| FC(F)(F)CCSc1ccccc1Oc1ncc(Cl)cn1 [Compound A1] |  |  |  |  |  |  | 3 (3=41 to 60%) | 3 (3=41 to 60%) | 5 (5=81 to 100%) | 4 (4=61 to 80%) | 5 (5=81 to 100%) | 4 (4=61 to 80%) |
| [O-][S+](CCC(F)(F)F)c1ccccc1Oc1ncc(Cl)cn1 (stereo not shown) [Compound A2] | 4 (4=61 to 80%) | 4 (4=61 to 80%) | 5 (5=81 to 100%) | 4 (4=61 to 80%) | 4 (4=61 to 80%) | 5 (5=81 to 100%) | 2 (2=21 to 40%) | 3 (3=41 to 60%) | 5 (5=81 to 100%) | 5 (5=81 to 100%) | 5 (5=81 to 100%) | 5 (5=81 to 100%) |
| O=S(=O)(CCC(F)(F)F)c1ccccc1Oc1ncc(Cl)cn1 [Compound A3] | 3 (3=41 to 60%) | 4 (4=61 to 80%) | 5 (5=81 to 100%) | 4 (4=61 to 80%) | 4 (4=61 to 80%) | 5 (5=81 to 100%) | 3 (3=41 to 60%) | 4 (4=61 to 80%) | 5 (5=81 to 100%) | 5 (5=81 to 100%) | 5 (5=81 to 100%) | 4 (4=61 to 80%) |
| FC(F)(F)CCCSc1ccccc1Oc1ncc(Cl)cn1 [Compound A4, 5-chloro-2-[2-(4,4,4-trifluorobutylsulfanyl)phenoxy] pyrimidine] | 4 (4=61 to 80%) | 4 (4=61 to 80%) | 5 (5=81 to 100%) | 4 (4=61 to 80%) | 5 (5=81 to 100%) | 5 (5=81 to 100%) | 3 (3=41 to 60%) | 4 (4=61 to 80%) | 5 (5=81 to 100%) | 5 (5=81 to 100%) | 5 (5=81 to 100%) | 4 (4=61 to 80%) |
| [O-][S+](CCCC(F)(F)F)c1ccccc1Oc1ncc(Cl)cn1 (stereo not shown) [Compound A5] | 4 (4=61 to 80%) | 5 (5=81 to 100%) | 5 (5=81 to 100%) | 5 (5=81 to 100%) | 5 (5=81 to 100%) | 5 (5=81 to 100%) | 5 (5=81 to 100%) | 5 (5=81 to 100%) | 5 (5=81 to 100%) | 5 (5=81 to 100%) | 5 (5=81 to 100%) | 5 (5=81 to 100%) |
| O=S(=O)(CCCC(F)(F)F)c1ccccc1Oc1ncc(Cl)cn1 [Compound A6] | 3 (3=41 to 60%) | 2 (2=21 to 40%) | 5 (5=81 to 100%) | 3 (3=41 to 60%) | 4 (4=61 to 80%) | 5 (5=81 to 100%) | 2 (2=21 to 40%) | 2 (2=21 to 40%) | 5 (5=81 to 100%) | 4 (4=61 to 80%) | 5 (5=81 to 100%) | 3 (3=41 to 60%) |
| Fc1cccc(Oc2ncc(Cl)cn2)c1SCCC(F)(F)F [Compound A7] | 2 (2=21 to 40%) | 2 (2=21 to 40%) | 5 (5=81 to 100%) | 4 (4=61 to 80%) | 5 (5=81 to 100%) | 5 (5=81 to 100%) | 2 (2=21 to 40%) | 4 (4=61 to 80%) | 5 (5=81 to 100%) | 5 (5=81 to 100%) | 5 (5=81 to 100%) | 4 (4=61 to 80%) |
| [O-][S+](CCC(F)(F)F)c1c(F)cccc1Oc1ncc(Cl)cn1 (stereo not shown) [Compound A8] | 2 (2=21 to 40%) | 1 (1=0 to 20%) | 5 (5=81 to 100%) | 1 (1=0 to 20%) | 3 (3=41 to 60%) | 4 (4=61 to 80%) | 2 (2=21 to 40%) | 2 (2=21 to 40%) | 5 (5=81 to 100%) | 2 (2=21 to 40%) | 4 (4=61 to 80%) | 4 (4=61 to 80%) |
| N#Cc1cccc(Oc2ncc(Cl)cn2)c1S(=O)(=O)CCCOC(F)(F)F [Compound A117] | 3 (3=41 to 60%) |  | 5 (5=81 to 100%) | 4 (4=61 to 80%) | 4 (4=61 to 80%) |  | 5 (5=81 to 100%) |  | 5 (5=81 to 100%) | 4 (4=61 to 80%) | 5 (5=81 to 100%) |  |
| N#Cc1cccc(Oc2ncc(Br)cn2)c1S(=O)(=O)CCCC(F)(F)F [Compound A118] | 4 (4=61 to 80%) |  | 5 (5=81 to 100%) | 4 (4=61 to 80%) | 4 (4=61 to 80%) |  | 5 (5=81 to 100%) |  | 5 (5=81 to 100%) | 5 (5=81 to 100%) | 5 (5=81 to 100%) |  |
| N#Cc1cccc(Oc2ncc(Br)cn2)c1SCCCC(F)(F)F [Compound A119] | 4 (4=61 to 80%) |  | 5 (5=81 to 100%) | 4 (4=61 to 80%) | 4 (4=61 to 80%) |  | 5 (5=81 to 100%) |  | 5 (5=81 to 100%) | 5 (5=81 to 100%) | 5 (5=81 to 100%) |  |
| N#Cc1cccc(Oc2ncc(Br)cn2)c1S(=O)(=O)CCCCC(F)(F)F [Compound A120] | 4 (4=61 to 80%) |  | 4 (4=61 to 80%) | 3 (3=41 to 60%) | 3 (3=41 to 60%) |  | 5 (5=81 to 100%) |  | 4 (4=61 to 80%) | 3 (3=41 to 60%) | 4 (4=61 to 80%) |  |
| N#Cc1cccc(Oc2ncc(Br)cn2)c1SCCCCC(F)(F)F [Compound A121] | 3 (3=41 to 60%) |  | 5 (5=81 to 100%) | 3 (3=41 to 60%) | 4 (4=61 to 80%) |  | 2 (2=21 to 40%) |  | 5 (5=81 to 100%) | 3 (3=41 to 60%) | 5 (5=81 to 100%) |  |
